Reference: US9505735B2, “Compounds for treating infectious diseases” (Whitehead Institute for Biomedical Research, priority 2012, dated 2016)
Where “and” joins values, the source holds several entries; their conditions need not be identical. Identical values can stand only once. Like-named read-outs stand apart in the source and are kept apart here.

Key:
[1] = system: Wildtype S. cerevisiae BY4741; assay: Antifungal susceptibility testing, wildtype yeast; assay type: cell-based; conditions: Saccharomyces cerevisiae, read-out: EC50 Avg
Method: Archives of all strains were maintained in 25% glycerol at −80° C. Standard S. cerevisiae lab strains W303, BY4741, BY4742 and BY4743 were used for experiments. The C. albicans wild type strain in FIG. 1 was CaI4, a standard laboratory strain (Fonzi, et al. (1993) Genetics 134, 717-728). The C. albicans fluconazole-resistant strains CaCi-2, CaCi-8 and CaCi17 were generously provided by Ted White and originally collected by Spencer Redding and colleagues (White, (1997) Antimicrob Agents Chemother 41, 1488-1494; White, (1997) Antimicrob Agents Chemother 41, 1482-1487; White, et al. (1997) Oral Dis 3 Suppl 1, S102-109). The sequenced C. albicans wild type strain, Sc5314 (Gillum, et al. (1984) Mol Gen Genet 198, 179-182) used in P-glucan experiments was a gift from John Perfect's lab. CaAmphR, an amphotericin B-resistant strain is from ATCC (#20095). Caspofungin-resistant strain Cfr1 was derived by plating Sc5314 on caspofungin plates and isolating resistant colonies. A. terreus was purchased from ATCC (MYA-3633). The C. glabrata strain CgL5c was obtained from John Bennett's lab. The YKO heterozygous diploid strain collection is from Open Biosystems and was generated in BY4743. Haploid deletion strains were from the Yeast Knock-out Deletion Collection and purchased from Invitrogen. The over-expression library was made by transforming BY4741 with the Harvard Institute of Proteomics Flexgene library.
(§1) Sensitivity to gepinacin was determined in 96-well, flat bottom microtiter plates using a modification of the NCCLS broth microdilution protocol CLS M27-A3 and RPMI as culture medium. Fungi were inoculated at ˜10^3 cells per ml and incubated for 48 hours at 37° C. after which plates were sealed, shaken and the optical density read at 600 nm (OD600) on a Tecan Safire 2 plate reader. All samples were run in duplicate or triplicate and assays were repeated at least once. Results are expressed as fraction of growth in the absence of compound and the mean and standard deviation are plotted. For the mold A. terreus, inoculum was 10^4 cells per ml and plates were incubated at 35° C. for 48 hours in the dark. Plates were then visually scored as specified by CLSI document M38-A2 to determine the MIC50 and MIC80.
(§2) The following gepinacin analogs were tested for activity against Gwt1. Gepinacin, M3, CM2, CM4, CM6, CM7, CM8, and 857621-56-8 were available commercially. The compounds were tested using the “Antifungal Susceptibility Testing” protocol described above. Fungi tested are described in the “Fungal Strains” section above.

[2] = target: T1, Gwt1 (Saccharomyces cerevisiae, UniProt P47026); assay: Antifungal susceptibility testing, screening strains with plasmid-borne GWT1 (low or high copy); assay type: cell-based, S. cerevisiae
T1 construct: Wildtype S. cerevisiae BY4741; endogenous in cells; host or cells: S. cerevisiae BY4741 (wild type)
T1 sequence (P47026 1-490): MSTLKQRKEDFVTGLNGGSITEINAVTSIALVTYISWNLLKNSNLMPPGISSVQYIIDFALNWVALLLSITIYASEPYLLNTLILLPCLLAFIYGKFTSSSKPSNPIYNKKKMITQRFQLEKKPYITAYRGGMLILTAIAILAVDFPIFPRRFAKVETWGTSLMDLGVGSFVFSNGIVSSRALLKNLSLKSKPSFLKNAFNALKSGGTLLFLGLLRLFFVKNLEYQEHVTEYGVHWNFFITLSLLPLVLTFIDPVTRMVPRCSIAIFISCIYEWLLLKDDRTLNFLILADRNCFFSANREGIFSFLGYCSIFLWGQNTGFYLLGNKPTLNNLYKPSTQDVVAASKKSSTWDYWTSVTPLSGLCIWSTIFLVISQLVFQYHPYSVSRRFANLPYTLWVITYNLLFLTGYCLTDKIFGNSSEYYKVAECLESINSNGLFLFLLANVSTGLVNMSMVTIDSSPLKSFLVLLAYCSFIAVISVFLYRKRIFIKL
Method: as §1
Because GWT1 deletion is lethal in S. cerevisiae strain BY4741, a haploid shuttle strain was constructed in which the genomic copy of GWT1 was deleted and replaced by GWT1 on a plasmid that also encoded the URA3 gene and a G418-resistance gene. To construct this shuttle strain a gwt1Δ/GWT1 heterozygous deletion mutant was transformed with pAGGPD416-GWT1, sporulated and dissected. A colony was selected that grew on both SD-URA and G418-containing plates. PCR with the deletion specific primers (http://wwwsequence.stanford.edu/group/yeast_deletion_project/deletions3.html) was performed to confirm the GWT1 deletion. To change the source of GWT, this shuttle strain was transformed with plasmids containing GWT1 (as a control) or PIG-W and the LEU2 auxotrophy gene followed by selection for growth on SD-LEU plates. Plasmids were constructed by conventional Gateway technology using a GWT1 encoding entry vector and either pAG415GPDccdB or pAG425GPDccdB as the destination vectors. Positive colonies were selected and grown on 5-fluoroorotic acid (5-FOA)-containing plates to promote loss of the pAGGPD416-GWT1 plasmid. The colonies from this plate were then tested for return of uridine auxotrophy to confirm pAGGPD416-GWT1 loss. The PIG-W expression vector was constructed by recombination in yeast as follows. The pAG415GPDccdB vector was cut with Xho1 and Xba1 and the larger piece was gel and column purified. The coding sequence of PIG-W was PCR amplified from the entry clone so that it would have ends facilitating recombination with the cut vector. The shuttle strain was then transformed with these two DNA fragments and plated on SD-LEU plates to select for recombinants. PIG-W plasmid was isolated from the final strain and sequence verified.
as §2
An S. cerevesiae strain was generated in which the endogenous Gwt1 gene was deleted. Plasmids (either high copy or low copy) with either S. cerevesiae or human Gwt1 were introduced to produce strains bearing such plasmids expressing either S. cerevesiae or human Gwt1 from a constitutive promoter. Yeast strains were cultured in liquid media in the presence of indicated compounds. Shown in FIGS. 22A-D show the effect of the indicated compounds on growth (assessed by OD600) and viability (assessed using Bactiter Glo) of the yeast strain with high copy or low copy plasmid containing S. cerevesiae Gwt1. The compounds had no effect on strains with the human Gwt1, thus showing the compounds' sensitivity for the fungal (yeast) Gwt1 gene.

[3] = target: T2, PIG-W (Homo sapiens, UniProt Q7Z7B1); assay: Growth of S. cerevisiae strain whose GWT1 is replaced by the human gene PIG-W; assay type: cell-based
T2 construct: expressed in transfected cells; host or cells: S. cerevisiae BY4741-derived gwt1 deletion shuttle strain carrying a pAG415GPD-based PIG-W plasmid
T2 sequence (Q7Z7B1 1-504): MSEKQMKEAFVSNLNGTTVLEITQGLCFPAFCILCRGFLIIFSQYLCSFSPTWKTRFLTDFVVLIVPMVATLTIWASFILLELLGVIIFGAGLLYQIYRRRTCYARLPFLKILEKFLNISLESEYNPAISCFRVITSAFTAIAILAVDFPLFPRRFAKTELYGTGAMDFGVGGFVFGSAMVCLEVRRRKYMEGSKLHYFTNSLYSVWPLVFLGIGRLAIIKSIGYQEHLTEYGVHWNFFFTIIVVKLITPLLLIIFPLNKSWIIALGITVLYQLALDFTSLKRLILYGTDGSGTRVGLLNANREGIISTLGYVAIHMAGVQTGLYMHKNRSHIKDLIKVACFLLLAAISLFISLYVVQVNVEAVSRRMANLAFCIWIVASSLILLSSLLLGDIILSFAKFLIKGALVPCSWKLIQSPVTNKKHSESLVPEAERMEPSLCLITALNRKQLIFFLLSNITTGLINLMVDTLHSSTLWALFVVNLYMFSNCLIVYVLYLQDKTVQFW
Method: as §1
Because GWT1 deletion is lethal in S. cerevisiae strain BY4741, a haploid shuttle strain was constructed in which the genomic copy of GWT1 was deleted and replaced by GWT1 on a plasmid that also encoded the URA3 gene and a G418-resistance gene. […]
An S. cerevesiae strain was generated in which the endogenous Gwt1 gene was deleted. […] Shown in FIGS. 22A-D show the effect of the indicated compounds on growth (assessed by OD600) and viability (assessed using Bactiter Glo) of the yeast strain with high copy or low copy plasmid containing S. cerevesiae Gwt1. […]

[4] = system: unfolded protein response; assay: Unfolded protein response GFP reporter (UPRE-GFP), flow cytometry; assay type: cell-based, S. cerevisiae; conditions: 5 hours
Method: Induction of the unfolded protein response in cells carrying a GFP reporter construct was monitored by flow cytometry after exposure to serial dilutions of the indicated compounds for 5 hrs.
The plasmid pRS304-4XUPRE-GFP was linearized and integrated into the TRP1 locus of S. cerevisiae (W303) to construct a reporter strain as previously described (Cox, et al. (1993) Cell 73, 1197-1206; Pollard, et al. (1998) Mol Cell 1, 171-182). Reporter cells were grown to log phase and exposed to compound at 23° C. for 5 hours before analysis. GFP reporter induction was monitored on a Guava EasyCyte Plus cytometer. The average mean channel fluorescence of duplicate samples was determined, and the experiment was performed twice with similar results.

[5] = system: S. cerevisiae strains deleted for IRE1 or HAC1; assay: Antifungal susceptibility testing of UPR-deficient strains; assay type: cell-based; conditions: 48 hour
Method: (§3) (A) Immunoblots of lysates prepared from S. cerevisiae treated with gepinacin showing GPI-anchor-selective impairment of protein maturation. The unprocessed (u), precursor (p), and mature (m) forms of the reporter proteins are indicated. The identity of the tagged reporter proteins (top of panel) and the antibodies used for their detection (bottom of panel) are also indicated. Treatment conditions are DMSO (0.05%), gepinacin (GPN, 10 μM) or tunicamycin (Tun, 10 μM). The same lysate was used for both blots. […] GFP expression was monitored by flow cytometry. (C) Anti-fungal susceptibility testing of strains deleted for IRE1 (activator of the UPR) or HAC1 (effector of the UPR) showing their increased sensitivity to gepinacin.
Anti-fungal susceptibility testing of strains bearing deletion of IRE1 (activator of the UPR) or HAC1 (effector of the UPR) using either […] (A) or fluconazole (B). Growth was measured by OD600 after 48 hour exposure to serial dilutions of the compounds as indicated. Results are expressed as a fraction of the OD600 measured in the absence of gepinacin. The mean and standard deviation of triplicate determinations are shown.

[6] = system: Gas1 and CPY maturation; assay: Protein trafficking analysis (immunoblot of reporter proteins); assay type: cell-based, S. cerevisiae; conditions: 10 μM, 1 hour
Method: as §3
HA-tagged GAS1 was expressed in strain BY4741 CPY-GFP (Yeast GFP collection (Huh, et al. (2003) Nature 425, 686-691) under control of its own promoter using plasmid pCM-HA-GAS1. This construct was created as previously reported except in a gateway plasmid backbone (Fujita, et al. (2006) Mol Biol Cell 17, 834-850). To assess effects on trafficking, strains were incubated for 1 hour at 30° C. with test compounds. Total cellular protein (5 μg) was separated by electrophoresis (Invitrogen 8% gels) and transferred to nitrocellulose membranes. Blots were hybridized with antibodies against HA (Covance), GFP (Roche), or CPY (Invitrogen). Sizes for the various post-translationally modified products of Gas1HA2 and CPY have been previously reported (Fujita, et al. (2006) Mol Biol Cell 17, 834-850). CPY-GFP was used to facilitate discrimination of CPY processing steps because GFP is cleaved from CPY in the yeast vacuole. The experiment, however, was also performed with untagged CPY with the same results.

[7] = EC50 High Copy GWT1, Screening strains, high copy GWT1 plasmid
[8] = EC50 Low Copy GWT1, Screening strains, low copy GWT1 plasmid

Molecule	EC50 [2, 7]	EC50 [2, 8]	activation of the unfolded protein response (GFP reporter) [4]	also measured
CC(C)COc1cccc(OCC(=O)Nc2ccc(F)cc2)c1 [CM2]	3.07 µM	1.16 µM	–	EC50 ([1]; Wildtype S. cerevisiae BY4741): 7.05 µM
CC(C)COc1cccc(OCC(=O)Nc2ccc(N(C)C)cc2)c1 [CM3]	–	–	–	EC50 [1]: 18.2 µM
COc1ccc(NC(=O)COc2cccc(OCCC(C)C)c2)cc1 [CM7]	6.2 µM	1.31 µM	–	EC50 ([1]; Wildtype S. cerevisiae BY4741): 2.65 µM
COc1ccc(NC(=O)COc2cccc(OCC(C)C)c2)cc1 [LW16]	1.17 µM and 1.89 µM and 8.6 µM	–	–	EC50 ([1]; Wildtype S. cerevisiae BY4741): 2.9 µM
COc1ccc(NC(=O)C(C)Oc2cccc(OCc3ccccc3)c2)cc1 (stereo not drawn) [MAZ1844]	–	–	–	activity against Gwt1 [2]: not Gwt1; activity against PigW / in the PIG-W expressing strain [3]: active
COc1ccc(NC(=O)C(C)Oc2cccc(OCC(C)C)c2)cc1 (stereo not drawn) [MAZ1855]	93.1 µM	12.8 µM	–	–
COc1ccc(NC(=O)COc2cccc(OCc3ccccc3)c2)cc1 [MAZ1857]	268 µM	177 µM	–	–
COc1ccc(NC(=O)COc2cccc(Oc3ccccn3)c2)cc1 [MAZ1859]	7.2 µM	4.9 µM	–	–
C[C@@H]1[C@H](O)[C@@H](C)/C=C/C=C/C=C/C=C/C=C/C=C/C=C/[C@H](O[C@@H]2O[C@H](C)[C@@H](O)[C@H](N)[C@@H]2O)C[C@@H]2O[C@](O)(C[C@@H](O)C[C@@H](O)[C@H](O)CC[C@@H](O)C[C@@H](O)CC(=O)O[C@H]1C)C[C@H](O)[C@H]2C(=O)O [amphotericin B]	–	–	not seen	–
CC[C@H](C)C[C@H](C)CCCCCCCCC(=O)N[C@H]1C[C@@H](O)[C@@H](NCCN)NC(=O)[C@@H]2[C@@H](O)CCN2C(=O)[C@H]([C@H](O)CCN)NC(=O)[C@H]([C@H](O)[C@@H](O)c2ccc(O)cc2)NC(=O)[C@@H]2C[C@@H](O)CN2C(=O)[C@H]([C@@H](C)O)NC1=O [caspofungin]	–	–	not seen	–
OC(Cn1cncn1)(Cn1cncn1)c1ccc(F)cc1F [fluconazole, reference compound]	–	–	not seen	change of toxicity by deletion of HAC1 or IRE1 [5]: completely unaffected
tunicamycin [reference compound]	–	–	Strong induction	CPY (not GPI-anchored) processing [6]: alters the processing of both proteins; Gas1 (GPI-anchored) maturation: mature versus precursor form [6]: alters the processing of both proteins
